Experimental data: the supplement of paper PMC10307832

Tests used:
Test in all cases: relative viability (nuclei count vs DMSO), 5 days (fraction); higher = more cells survive
Ruxolitinib + Lapatinib = compound: N#CC[C@H](C1CCCC1)n1cc(-c2ncnc3[nH]ccc23)cn1 [Ruxolitinib] + CS(=O)(=O)CCNCc1ccc(-c2ccc3ncnc(Nc4ccc(OCc5cccc(F)c5)c(Cl)c4)c3c2)o1 [Lapatinib] (partner 2 µM)
Procedure, shortened: (§1)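 Relative viability is defined as nuclei in treated wells over nuclei in vehicle wells. Duplicate plates were run and medians reported. Lung cancer cell lines in 1536-well plates were dosed by pin tool one day after seeding, with one drug or with a fixed anchor-drug dose plus five library-drug doses (not always all listed) in √10 steps, and nuclei were counted after 5 days.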

Ruxolitinib + Foretinib = compound: N#CC[C@H](C1CCCC1)n1cc(-c2ncnc3[nH]ccc23)cn1 [Ruxolitinib] + COc1cc2c(Oc3ccc(NC(=O)C4(C(=O)Nc5ccc(F)cc5)CC4)cc3F)ccnc2cc1OCCCN1CCOCC1 [Foretinib] (partner 0.25 µM)
Procedure, shortened: as §1

Vismodegib + Bortezomib = compound: CS(=O)(=O)c1ccc(C(=O)Nc2ccc(Cl)c(-c3ccccn3)c2)c(Cl)c1 [Vismodegib] + CC(C)C[C@H](NC(=O)[C@H](Cc1ccccc1)NC(=O)c1cnccn1)B(O)O [Bortezomib] (partner 0.002 µM)
Procedure, shortened: as §1

Ruxolitinib + Crizotinib = compound: N#CC[C@H](C1CCCC1)n1cc(-c2ncnc3[nH]ccc23)cn1 [Ruxolitinib] + C[C@@H](Oc1cc(-c2cnn(C3CCNCC3)c2)cnc1N)c1c(Cl)ccc(F)c1Cl [Crizotinib] (partner 1 µM)
Procedure, shortened: as §1

Row | Cell Line | relative viability (Ruxolitinib + Lapatinib; first compound 0.08 µM) | relative viability (Ruxolitinib + Lapatinib; first compound 0.253 µM) | relative viability (Ruxolitinib + Lapatinib; first compound 0.8 µM) | relative viability (Ruxolitinib + Lapatinib; first compound 2.53 µM) | relative viability (Ruxolitinib + Lapatinib; first compound 8 µM) | relative viability (Ruxolitinib + Foretinib; first compound 0.08 µM) | relative viability (Ruxolitinib + Foretinib; first compound 0.253 µM) | relative viability (Ruxolitinib + Foretinib; first compound 0.8 µM) | relative viability (Ruxolitinib + Foretinib; first compound 2.53 µM) | relative viability (Ruxolitinib + Foretinib; first compound 8 µM) | relative viability (Vismodegib + Bortezomib; first compound 0.08 µM) | relative viability (Vismodegib + Bortezomib; first compound 0.253 µM) | relative viability (Vismodegib + Bortezomib; first compound 0.8 µM) | relative viability (Vismodegib + Bortezomib; first compound 2.53 µM) | relative viability (Vismodegib + Bortezomib; first compound 8 µM) | relative viability (Ruxolitinib + Crizotinib; first compound 0.08 µM) | relative viability (Ruxolitinib + Crizotinib; first compound 0.253 µM) | relative viability (Ruxolitinib + Crizotinib; first compound 0.8 µM) | relative viability (Ruxolitinib + Crizotinib; first compound 2.53 µM) | relative viability (Ruxolitinib + Crizotinib; first compound 8 µM)
1 | NCI-H1299 | 0.937 | 0.963 | 0.957 | 0.915 | 0.718 | 1.09 | 1.1 | 1.05 | 0.982 | 0.853 | 1.01 | 0.985 | 1.04 | 1.01 | 0.973 | 0.981 | 0.909 | 0.973 | 0.839 | 0.704
2 | BEN | 0.798 | 0.76 | 0.766 | 0.767 | 0.777 | 0.773 | 0.634 | 0.729 | 0.62 | 0.612 | 0.574 | 0.787 | 0.819 | 0.846 | 0.885 | 0.832 | 1.01 | 1.07 | 0.735 | 0.95
3 | NCI-H23 | 1.03 | 1.27 | 1.2 | 0.775 | 0.852 | 1.07 | 0.969 | 1 | 0.813 | 0.709 | 1.16 | 1.01 | 0.931 | 0.986 | 0.944 | 0.457 | 0.527 | 0.71 | 0.43 | 0.488
4 | LU99A | 1.11 | 0.954 | 1.13 | 0.754 | 0.675 | 0.882 | 0.858 | 0.787 | 0.69 | 0.641 | 1.12 | 1.13 | 1.25 | 1.09 | 1.15 | 0.588 | 0.655 | 0.532 | 0.612 | 0.519
5 | ABC-1 | 1.19 | 1.19 | 1.4 | 1.11 | 1.17 | – | 1.35 | 1.33 | 0.975 | 0.99 | 0.332 | 0.244 | 0.331 | 0.299 | 0.324 | 1.12 | 1.02 | 1.22 | 0.992 | 1.26
6 | SW 1573 | 1.05 | 0.99 | 1.16 | 1.07 | 1.09 | 0.979 | 0.916 | 1.1 | 0.834 | 0.885 | 0.958 | 0.995 | 1.16 | – | 0.946 | 0.887 | 0.75 | 0.969 | 0.791 | 0.733
7 | NCI-H2009 | 1.05 | 0.997 | 1.09 | 0.737 | 0.633 | 1.21 | 1.27 | 1.23 | 1.15 | 0.876 | 0.947 | 0.986 | 0.976 | 0.967 | 1.04 | 1.1 | 0.996 | 1.12 | 0.769 | 0.832
8 | HCC-15 | 0.859 | 0.905 | 0.869 | 0.786 | 0.779 | 1.04 | 0.995 | 1.1 | 0.926 | 0.771 | 0.978 | 1.07 | 0.938 | 1.09 | 1 | 0.774 | 0.839 | 0.883 | 0.794 | 0.693
